Assay results from the NIST ThermoML archive (doi:10.1016/j.jct.2005.04.011).
Numbers after ± are expanded uncertainties.

Legend:
[1] = cn = amount concentration of the nth substance listed, in mol/dm3; details: 101 kPa, Liquid, c1 = 0.2; for mass density: Pycnometric method
[2] = refractive index (Na D-line) (dimensionless); cn = amount concentration of the nth substance listed, in mol/dm3; details: 101 kPa, Liquid, Standard Abbe refractometry, c1 = 0.2

O=C[C@H](O)[C@@H](O)[C@H](O)[C@H](O)CO [D-glucose] + O
Details | mass density, 298.15 K [kg/m3] | mass density, 313.15 K [kg/m3] | refractive index, 298.15 K | refractive index, 303.15 K | refractive index, 308.15 K | refractive index, 313.15 K | viscosity, 298.15 K [mPa·s] | viscosity, 303.15 K [mPa·s] | viscosity, 308.15 K [mPa·s] | viscosity, 313.15 K [mPa·s]
[1] | 1010.3 ± 0.3 | 1005.3 ± 0.4 | – | – | – | – | 1.01 ± 0.03 | 0.89 ± 0.02 | 0.8 ± 0.02 | 0.7 ± 0.02
[2] | – | – | 1.336 ± 0.002 | 1.335 ± 0.002 | 1.3349 ± 0.002 | 1.334 ± 0.002 | – | – | – | –
